Results: PMC7280029, “Development of FRET‐based high‐throughput screening for viral RNase III inhibitors” (Molecular Plant Pathology, 2020)

Columns and labels:
[1] = target: CSR3 (class 1 RNase III of Sweet potato chlorotic stunt virus) (Sweet potato chlorotic stunt virus, UniProt Q8JJW8); assay: biochemical; format: biochemical; conditions: for DSS (drug-sensitivity score): dose-response 1.25 nM to 50 µM, Breeze software
Procedure: A dose–response assay was carried out with the top 109 compounds (concentration range 1.25 nM to 50 µM). The data were analysed with Breeze software, which generates dose–response curves and calculates the half‐maximal inhibitory concentration (IC50) and drug‐sensitivity score (DSS) for every compound. Considering that IC50 alone cannot comprehensively evaluate the drug sensitivity of the dose–response model in HTS assay, DSS was developed by Yadav et al. (2014) as a systematic algorithmic solution that integrated five factors: IC50, the slope at IC50, minimum activity level, and top and bottom asymptotes of dose–response model. The DSS values ranged from 0 to 19.2. The three structures differ (Figure 6, starred compounds). […] Table S1 lists the 109 compounds from the dose–response screens for CSR3, including information for compound identity, IC50, DSS, and dose–response curves.
For the HTS assay, plates (10 µM compound in each well) were prepared with an Echo liquid handler (Labcyte) at the FIMM (Institute for Molecular Medicine Finland) High‐Throughput Biomedicine unit. CSR3 and annealed siRNA were diluted to […] and 750 nM, respectively, in reaction buffer (50 mM Tris‐HCl, 125 mM NaCl, 25 mM MgCl2, pH 8.0). CSR3 solutions were dispensed into the wells of plates (10 µl CSR3 per well). Plates were incubated at room temperature for 15 min with shaking (450 rpm). Subsequently, 10 µl substrate was dispensed per well. […] The dose–response assay with six compound concentrations (range, 1.25 nM to 50 µM) was carried out with the same conditions. Plates were sealed, centrifuged briefly, and then, immediately analysed with a PHERAstar FS (BMG Labtech) with a fluorescence‐intensity optic module (excitation at 485 ± 6 nm, detection at 520 ± 5 nm) for 12 cycles (c.17 min total) at 37 °C. All dispensing was done using the BioTek MultiFlo FX. All screening plates contained positive‐control wells (lacking CSR3) and negative‐control wells (25 nl dimethyl sulphoxide, vehicle), which were used as standards to calculate the PI of compounds.
The PI of each compound for CSR3 was calculated according to Equation 2. A PI threshold of 30% was used as the cut‐off value for one concentration of HTS. Furthermore, the dose–response curves of PI in function of compound concentration were evaluated with DSS according to Yadav et al. (2014).(2) PI=1001-Ss-Sc+/SC--Sc+% where Sc + is the mean of the slope of the positive control, Sc − is the mean of the slope of the negative control, and Ss is the mean of the slope of samples.

[2] = test system: HIV-1 reverse transcriptase; set-up: method as in PubChem database; conditions: ref PubChem database; cited from earlier work
[3] = test system: human heat shock 70 kDa protein; set-up: method as in PubChem database; conditions: ref PubChem database; cited from earlier work
[4] = test system: Cytokine/receptor Binary Complex of humans (4KC3_B); set-up: method as in PubChem database; conditions: ref PubChem database; cited from earlier work
[5] = test system: CSR3; assay: CSR3 kinetics with labelled siRNA substrate (Michaelis-Menten); format: biochemical, Sweet potato chlorotic stunt virus; conditions: 50 nM CSR3, 50-800 nM labelled siRNA
Procedure: To monitor the kinetics of CSR3 endoribonuclease activity, two‐fold dilutions (yielding 50–800 nM) of the labelled siRNA substrate were tested with 50 nM CSR3. As expected, start points of raw fluorescence increased with the FRET‐siRNA concentration (Figure 4a). Moreover, the slope of the raw fluorescence between all neighbouring detection cycles was calculated for all cycle numbers. […] Finally, the maximal slope for every labelled siRNA concentration was used to determine the catalytic rate of CSR3.
The HTS assay was designed to maximize siRNA cleavage by CSR3. We used a donor–quencher fluorogenic siRNA as the substrate for CSR3. […] To assess CSR3 activity, five labelled siRNA concentrations (50–800 nM) were used with 50 nM CSR3. To test the reproducibility and precision of the assay, full plates containing only negative (50 nM CSR3) and positive reactions (lacking CSR3) were tested with 375 nM labelled siRNA. […]
The kinetic constant (K d) for CSR3 was calculated using the three‐parameter Michaelis–Menten model (MM.3) included in the R package dcr (Ritz et al., 2015). The statistical significance of differences between values was assessed with one‐way ANOVA using the aov function in the R package.

Chain of CSR3 (class 1 RNase III of Sweet potato chlorotic stunt virus) (Q8JJW8 entry or part of it): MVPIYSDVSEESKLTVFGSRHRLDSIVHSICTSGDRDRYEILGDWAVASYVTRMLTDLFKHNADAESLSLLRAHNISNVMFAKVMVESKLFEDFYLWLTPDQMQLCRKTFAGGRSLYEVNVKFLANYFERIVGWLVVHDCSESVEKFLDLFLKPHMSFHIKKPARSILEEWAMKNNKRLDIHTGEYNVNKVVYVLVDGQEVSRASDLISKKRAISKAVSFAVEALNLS

| Compound | IC50 [1] [nM] | DSS (drug-sensitivity score) [1] | also measured |
| --- | --- | --- | --- |
| CN1CCc2cccc3c2[C@H]1Cc1ccc(O)c(O)c1-3 [FIMM000096] | 2900 | 12.7 |  |
| O=C1c2c(O)ccc(O)c2C(=O)c2c(NCCNCCO)ccc(NCCNCCO)c21 [FIMM000490] | 1810 | 14.9 |  |
| O=C(O)c1ccc(C2Nc3c(Br)cccc3C3C=CCC32)cc1 (stereo not drawn) [FIMM022230] | 1860 | 13.8 |  |
| Cc1ccc(C)c(C(=O)CSc2nnc[nH]2)c1 [FIMM027745] | 647 | 19.2 | activity in inhibitor screen [2]: inactive; activity in inhibitor screen [3]: inactive |
| CCn1c(C)nc2cc(S(N)(=O)=O)ccc21 [FIMM028155] | 782 | 17.6 |  |
| Cc1ccc([C@@H]2Nc3ccc(C(=O)O)cc3[C@@H]3C=CC[C@@H]32)cc1 [FIMM031755] | 1270 |  | activity in inhibitor screening assay [4]: effective at micromolar concentrations |
| CN1C(=O)C(=CNc2ccc(F)cc2)C(=O)N(C)C1=O [FIMM059523] | > 50000 | 0 |  |
| O=S(=O)(O)c1cccc2cc(O)ccc12 [FIMM072577] | 699 | 18.3 |  |
| c1cnc2[nH]c(Nc3ccc(Nc4nc5cccnc5[nH]4)cc3)nc2c1 [FIMM092170] | 2840 | 12.9 |  |
| CCn1c(S)nnc1CCNC(=O)c1cccs1 [FIMM099662] | 3070 | 11.7 |  |
| COc1cc(C=C2C(=O)NC(=S)NC2=O)ccc1OCc1ccccc1[N+](=O)[O-] [FIMM101864] | 3850 | 11.2 |  |
| CC(C)(C)C1CCc2c(sc(NC(=O)C3CC=CCC3C(=O)O)c2C(N)=O)C1 (stereo not drawn) [FIMM104970] |  | 0 |  |
| labelled siRNA: 22 bp siRNA with two-nucleotide 3' overhang, FAM reporter and BHQ1 quencher on the sense strand; CSR3 substrate (sense CGUAGUGGAAGUGGGAGAGGTC; antisense CCUCUCCCACUUCCACUACGTG; FAM reporter and BHQ1 quencher on sense strand, positions not given here) |  |  | Km ([5]; Michaelis-Menten model MM.3): 0.229 µM; Vmax ([5]; maximal slope): 22.47 |
